According to US20050244472A1, “Intraocular drug delivery systems containing excipients with reduced toxicity and related methods” (Allergan, Inc., priority 2004, published 2005):
Read-outs that look alike come from different tables or passages of the source.

Legend:
[1] = in vitro; settings: human
From the text: (§1) Cell viability and cell morphology were examined to evaluate the toxicity of excipients on retinal pigment epithelial cells. The human retina cell line used in these experiments is the ARPE-19 cell line (human adult-derived retinal pigmented epithelial cells). […] They form tight-junctions with transepithelial resistance of monolayers (Dunn K C et al., supra). From a molecular standpoint, it appears that ARPE-19 express a huge pattern of genes similar to those expressed by human RPE from fresh explant which could account for their physiological function (Klimanskaya I. et al., “Derivation and comparative assessment of retinal pigment epithelium from human embryonic stem cells using transcriptomics”, Cloning and Stem Cells, 2004, 6(3):217-45).
(§2) ARPE-19 cells are widely used as a retinal model that resemble physiological properties of RPE cells. Similar methods of culturing ARPE-19 cells and cytotoxicity assays can be found in Yeung et al., “Cytotoxicity of triamcinolone on cultured human retinal pigment epithelial cells: comparison with dexamethasone and hydrocortisone”, Jpn J. Ophthalmol, 2004; 48:236-242. Cell viability and cell morphology were examined using conventional colormetric and visual methods. Viability and morphology measurements were obtained at 24 hours, 48 hours, and 72 hours after exposure to an excipient composition.
(§3) To assess cell viability, mitochondrial metabolism was quantified through conventional colorometric assays (i.e., the MTT assay). This colorimetric assay utilizes 3-(4,5-dimethylthiazol-2-yl)-2,5-diphenyltetrazolium bromide (MTT) and correlates mitochondrial metabolism and cell viability through measurement of dehydrogenase activity which converts a substrate into crystal. More specifically, the assay measures the activity of living cells through mitochondrial dehydrogenases. When dissolved in culture cell medium, MTT solution appears dark orange. Mitochondrial dehydrogenases of viable cells degrade MTT by cleaving the tetrazolium ring yielding to formation of a purple formazan crystal, which is insoluble in water. Crystals are subsequently dissolved in isopropanol solution. A resulting purple solution is spectrophotometrically measured. Cell viability is relative to amount of formazan and calculated as a percentage of remaining treated compared to non-treated cells.
(§4) Results from the MTT assay were expressed as a percentage of cell viability calculated using the following equation: % cell viability=ODtest/ODcontrol×100.
(§5) For each experiment, one concentration was performed in triplicate. Each point was spectrophotometrically read twice. Average of readings was calculated, then average from these 3 values was determined.
(§6) After 3 experiments were independently completed under the same conditions, a graph was plotted with cell viability expressed as a function of concentration (dose response) and for various incubation period (time course). The IC50 was then estimated based on the graphed data.
(§7) More specifically, cell density in 24-multiwell plates was observed on the day of the experiment to check if confluence of the cells was reached. Aliquots of MTT concentrated solutions were removed from a freezer at −20° C. and thawed at room temperature. Cell medium was warmed at 37° C. before use. Appropriated tubes for diluting compounds were prepared. Higher concentrations of each excipient agent was prepared. Serial dilution was then performed in cell medium (DMEM:F12+10% FBS).
(§8) Cell culture medium in the 24-well plate was removed using vacuum-pump. Cells were then stimulated with 0.5 ml final volume for each concentration of one given excipient agent. Distribution of the excipient-containing solution was performed using automated pipet-aid in sterile environment (under PSM) or not depending on time of compounds and duration of incubation.
(§9) After stimulation, cells were replaced in a CO2 incubator for the required time of exposure.

[2] = system: ARPE-19 cells; experiment: in vitro
From the text: as §1, §2, §3, §4, §5, §6, §7, §8, §9

[3] = system: ARPE-19 cells; type: cell-based
Method: Cell morphology was visualized using light microscopy. Cell morphology observation using light microscopy permits determination of (i) cell number and density and (ii) whether or not cells in contact with an excipient agent display modified phenotype compared to a non-treated population of cells.
Cell morphology was analyzed in parallel by semi-quantitative scoring ranging from 5 to 1, from basal to lethal phenotype respectively, as shown in FIG. 23.
More specifically, cells were removed from an incubator for examination. Morphological shape of cells was visualized using a light microscope and CCD camera. Every 3 wells of a given concentration was observed through image analysis software. Then, a representative photograph describing the average appearance of cells was saved. The supernatant was either, kept for further predefined experiments to perform, or removed using vacuum-pump.
Resulting semi-quantitative scoring is represented as a function of time course and dose response. Score 5: wild type phenotype of non-treated cells, 100% confluent adherent cells. This phenotype very much vary following post-seeding time. For example, at confluence ARPE-19 cells at 1 day appear well defined with visible outer membrane and dark grey cytoplasm. After 3 days of confluence, limits between cells become less visible and cells adopt a more hexagonal shape and constitute an epithelium-like uniform dense structure. Score 4: density<100%. Cell shape has changed, some spaces are present between cells, few cells possibly detached. Score 3: […]. Spaces are sometimes present among cells, areas appears confluent while in others, cells detached. General cell shape starts showing non negligible alterations. Score 2: Cell density<50%. Cells adopt exclusively stressed appearance, presence of mass dead floating cells. Score 1: Cell density<10%. Presence of almost exclusively dead cells.
Based on quotation, each condition of the applied compound was given a score which allow to a morphology evolution profile to be prepared, ie. cell morphology as a function of compound concentration and time of exposure. […]

[4] = pH of excipient-containing incubating solutions; type: physicochemical
Method: (§10) For each concentration of tested compound, pH and osmolarity parameters were measured.

[5] = Osmolarity of excipient-containing incubating solutions; type: physicochemical
Method: Osmolarity was measured using osmometer type 13/13DR from Roebling (Berlin, GR).
as §10

[6] = 0.05% excipient dilution in culture medium
[7] = 0.1% excipient dilution in culture medium
[8] = 0.5% excipient dilution in culture medium
[9] = 1% excipient dilution in culture medium
[10] = 2% excipient dilution in culture medium
[11] = […] excipient dilution in culture medium

OCc1ccccc1 [Benzyl alcohol, benzyl alcohol]
cytotoxicity at 0.05 % [1]: ~45% | viability at 24 h, 0.05 % ([1]; Cell Viability): 56.1% | viability at 24 h, 0.1 % ([1]; Cell Viability): 48% | viability at 48 h, 0.05 % ([1]; Cell Viability): 60.9% | viability at 48 h, 0.1 % ([1]; Cell Viability): 49% | viability at 48 h, 0.5 % ([1]; Cell Viability): 1.2% | viability at 72 h, 0.05 % ([1]; Cell Viability): 57.5% | viability at 72 h, 0.1 % ([1]; Cell Viability): 49.1% | viability at 24 h, 0.05 % ([1]; Cell Viability, Mean (%)): 55.7% | viability at 24 h, 0.1 % ([1]; Cell Viability, Mean (%)): 45.9% | viability at 24 h, 0.5 % ([1]; Cell Viability, Mean (%)): 13.3% | viability at 24 h, 1 % ([1]; Cell Viability, Mean (%)): 0.4% | viability at 24 h, 2 % ([1]; Cell Viability, Mean (%)): 0.3% | viability at 24 h, […] ([1]; Cell Viability, Mean (%)): 0.4% | viability at 48 h, 0.05 % ([1]; Cell Viability, Mean (%)): 57.3% | viability at 48 h, 0.1 % ([1]; Cell Viability, Mean (%)): 42% | viability at 48 h, 0.5 % ([1]; Cell Viability, Mean (%)): 1.5% | viability at 48 h, 1 % ([1]; Cell Viability, Mean (%)): 1.5% | viability at 48 h, 2 % ([1]; Cell Viability, Mean (%)): 1.2% | viability at 48 h, […] ([1]; Cell Viability, Mean (%)): 1.3% | viability at 72 h, 0.05 % ([1]; Cell Viability, Mean (%)): 53.7% | viability at 72 h, 0.1 % ([1]; Cell Viability, Mean (%)): 42.2% | viability at 72 h, 0.5 % ([1]; Cell Viability, Mean (%)): 1.1% | viability at 72 h, 1 % ([1]; Cell Viability, Mean (%)): 0.9% | viability at 72 h, 2 % ([1]; Cell Viability, Mean (%)): 1% | viability at 72 h, […] ([1]; Cell Viability, Mean (%)): 1% | overall cytotoxicity to ARPE-19 cells (conclusion in words) [2]: very aggressive impact | living cells (morphology observation) [3]: no living cells survived | Morphology limit concentration (%) ([3]; human): 0.07% | Cell Morphology score, Mean ([3]; human, 24 h, 0.05 %): 3.3 | Cell Morphology score, Mean ([3]; human, 24 h, 0.1 %): 3.0 | Cell Morphology score, Mean ([3]; human, 24 h, 0.5 %): 1.0 | Cell Morphology score, Mean ([3]; human, 24 h, 1 %): 1.0 | Cell Morphology score, Mean ([3]; human, 24 h, 2 %): 1.0 | Cell Morphology score, Mean ([3]; human, 24 h, […]): 1.0 | Cell Morphology score, Mean ([3]; human, 48 h, 0.05 %): 3.7 | Cell Morphology score, Mean ([3]; human, 48 h, 0.1 %): 3.0 | Cell Morphology score, Mean ([3]; human, 48 h, 0.5 %): 1.0 | Cell Morphology score, Mean ([3]; human, 48 h, 1 %): 1.0 | Cell Morphology score, Mean ([3]; human, 48 h, 2 %): 1.0 | Cell Morphology score, Mean ([3]; human, 48 h, […]): 1.0 | Cell Morphology score, Mean ([3]; human, 72 h, 0.05 %): 3.3 | Cell Morphology score, Mean ([3]; human, 72 h, 0.1 %): 3.0 | Cell Morphology score, Mean ([3]; human, 72 h, 0.5 %): 1.0 | Cell Morphology score, Mean ([3]; human, 72 h, 1 %): 1.0 | Cell Morphology score, Mean ([3]; human, 72 h, 2 %): 1.0 | Cell Morphology score, Mean ([3]; human, 72 h, […]): 1.0 | pH [4, 6]: 8 | pH [4, 7]: 8.1 | pH [4, 8]: 8 | pH [4, 9]: 7.9 | pH [4, 10]: 8 | pH [4, 11]: 7.9 | mOsm [5, 6]: 293 mOsm | mOsm [5, 7]: 307 mOsm | mOsm [5, 8]: 347 mOsm | mOsm [5, 9]: 398 mOsm | mOsm [5, 10]: 493 mOsm | mOsm [5, 11]: 444 mOsm
